Consider four molecules from patent US9018194B2 (Nibon University, priority 2011, dated 2015).

Assay [1] addresses T1, human VDR (Homo sapiens, UniProt P11473).
T1 sequence (P11473 1-427): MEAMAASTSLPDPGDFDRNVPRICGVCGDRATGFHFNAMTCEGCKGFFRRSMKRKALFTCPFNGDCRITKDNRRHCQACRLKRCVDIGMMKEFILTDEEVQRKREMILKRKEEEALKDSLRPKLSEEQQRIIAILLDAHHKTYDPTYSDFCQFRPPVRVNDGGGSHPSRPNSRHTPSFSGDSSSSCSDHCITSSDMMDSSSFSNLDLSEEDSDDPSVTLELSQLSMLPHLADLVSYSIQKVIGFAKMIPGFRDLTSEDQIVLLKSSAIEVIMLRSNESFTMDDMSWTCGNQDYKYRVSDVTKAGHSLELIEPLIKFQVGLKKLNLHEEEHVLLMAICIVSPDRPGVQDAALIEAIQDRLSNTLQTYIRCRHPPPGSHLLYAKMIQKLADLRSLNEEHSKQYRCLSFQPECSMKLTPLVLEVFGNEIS
As to the kind of experiment: VDR transcription induction activity, luciferase reporter assay (mouse osteopontin VDRE) in HEK293 cells transfected with human VDR. Format: cell-based. Also noted: expressed in transfected cells; host or cells: HEK293 cells. Particulars: for efficacy of VDR transcription induction, % of that of the natural hormone / concentration at which the highest transcription activity was shown: HEK293 cells; for efficacy of VDR transcription induction, % of that of the natural hormone: Sppx3-tk-LUC reporter, relative to 1,25(OH)2D3; for concentration at which the highest transcription activity was shown: 10^-8 M was the lowest concentration used. The method, then: Briefly, HEK cells were transfected with human VDR expression vector (pCMX-VDR) and expression vectors for VDR responsive luciferase (Sppx3-tk-LUC) and β-galactosidase by the calcium phosphate method. Eight hours later, compounds were added to the cells. After culturing for 16-24 hr, cells were harvested, and the activities of luciferase and β-galactosidase were measured. Luciferase activity values were corrected with β-galactosidase activity values.
(In general: In a reporter assay the amount or activity of a reporter protein is the signal.)

Assay [2] has as its target T1, human VDR. Particulars: for VDR binding ability, rank in words: among ADTK1 through ADTK4.

Consider `C=C1[C@H](O)CC(=C/C=C2\CCC[C@]3(C)[C@@H]([C@H](C)CC#C[C@H](O)CC45CC6CC(CC(C6)C4)C5)CC[C@@H]23)C[C@H]1O` [ADTK3, (25R)-26-(1-Adamantyl)-1α,25-dihydroxy-2-methylene-23,23,24,24-tetradehydro-19,27-dinorvitamin D3], for which, on human VDR [1], the “efficacy of VDR transcription induction, % of that of the natural hormone” value (shortened to “efficacy … % of that of the natural hormone”) was found to be 72% and the “concentration at which the highest transcription activity was shown” value (from here on “concentration”) is listed as “around 10^−7 M”. In addition, at human VDR [2], the “VDR binding ability, rank in words” value is “lowest VDR binding ability”.

Regarding `C=C1[C@H](O)CC(=C/C=C2\CCC[C@]3(C)[C@@H]([C@H](C)CC#C[C@@H](O)CC45CC6CC(CC(C6)C4)C5)CC[C@@H]23)C[C@H]1O` [ADTK4, (25S)-26-(1-Adamantyl)-1α,25-dihydroxy-2-methylene-23,23,24,24-tetradehydro-19,27-dinorvitamin D3], at human VDR [1], the “efficacy … % of that of the natural hormone” value was found to be 54% and the “concentration” value is given as “around 10^−7 M”.

For the molecule “(25R)-25-(1-Adamantyl)-1α,25-dihydroxy-2-methylene-23,23,24,24-tetradehydro-19,26,27-trinorvitamin D3 [ADTK2]”, at human VDR [1], the “efficacy … % of that of the natural hormone” value was determined as 66% and the “concentration” value is on record as 10^−8 M. For the same molecule, at human VDR [1] (HEK293 luciferase assay, alone and in co-presence of 1,25(OH)2D3), the “type of activity at VDR (in words)” value is given as “partial agonist”. Besides, on human VDR [2], the “VDR binding ability, rank in words” value is listed as “highest VDR binding activity”. In addition, the “affinity for human VDR relative to the natural hormone 1,25(OH)2D3” value at human VDR [2] (competition with [3H]-1,25(OH)2D3, 1,25(OH)2D3 = 100%) is given as 67%.

As for “(25S)-25-(1-Adamantyl)-1α,25-dihydroxy-2-methylene-23,23,24,24-tetradehydro-19,26,27-trinorvitamin D3 [ADTK1]”, on human VDR [1], the “efficacy … % of that of the natural hormone” value is listed as 40% and the “concentration” value is “around 10^−7 M”.
